According to the NIST ThermoML archive (doi:10.1021/je049579x):
Values joined by “and” are separate entries in the source; they are usually repeats but may differ in a detail not shown here. Equal values may be shown once.

Conditions: Torsion effusion method

[I][Lu]([I])[I] [lutetium triiodide]
Crystal
Conditions | vapor or sublimation pressure
862 K | 3e-05 kPa
875 K | 6e-05 kPa
883 K | 7.6e-05 kPa
888 K | 8.9e-05 kPa
892 K | 7.6e-05 kPa
893 K | 0.000105 kPa
894 K | 0.00012 kPa
895 K | 0.00012 kPa
896 K | 0.000151 kPa
897 K | 0.00012 kPa
898 K | 0.000151 kPa
899 K | 0.000151 kPa
900 K | 0.000105 kPa
901 K | 0.00012 kPa
904 K | 0.000151 kPa and 0.000182 kPa
905 K | 0.000182 kPa
906 K | 0.000224 kPa and 0.000166 kPa
909 K | 0.000209 kPa and 0.000151 kPa and 0.000166 kPa
911 K | 0.00024 kPa and 0.000195 kPa
912 K | 0.000209 kPa
913 K | 0.00024 kPa
915 K | 0.000269 kPa
916 K | 0.000302 kPa and 0.00024 kPa
917 K | 0.000347 kPa
918 K | 0.00024 kPa
919 K | 0.000209 kPa
920 K | 0.000269 kPa and 0.000288 kPa
921 K | 0.000331 kPa
923 K | 0.000372 kPa
924 K | 0.000363 kPa
926 K | 0.000269 kPa and 0.000447 kPa
927 K | 0.000347 kPa
928 K | 0.000513 kPa and 0.000363 kPa and 0.000389 kPa
929 K | 0.000389 kPa
931 K | 0.000513 kPa
932 K | 0.000501 kPa
933 K | 0.000575 kPa
935 K | 0.000537 kPa
936 K | 0.000513 kPa
937 K | 0.000513 kPa
938 K | 0.000724 kPa [middle of 4 runs]
940 K | 0.000692 kPa
942 K | 0.000759 kPa
943 K | 0.000759 kPa and 0.000692 kPa
945 K | 0.000692 kPa and 0.000575 kPa and 0.000724 kPa
948 K | 0.001047 kPa and 0.000776 kPa
949 K | 0.000933 kPa
950 K | 0.001023 kPa
951 K | 0.001072 kPa and 0.000891 kPa
952 K | 0.001122 kPa
953 K | 0.000933 kPa
954 K | 0.001 kPa
955 K | 0.000832 kPa
958 K | 0.001413 kPa and 0.001445 kPa and 0.001148 kPa
959 K | 0.001445 kPa and 0.00123 kPa
960 K | 0.001514 kPa
961 K | 0.001479 kPa
962 K | 0.001349 kPa
963 K | 0.001413 kPa
964 K | 0.00123 kPa
967 K | 0.00195 kPa and 0.001622 kPa
968 K | 0.002239 kPa and 0.001995 kPa
969 K | 0.001622 kPa
970 K | 0.002138 kPa
972 K | 0.001905 kPa and 0.002239 kPa and 0.00182 kPa
974 K | 0.001738 kPa
975 K | 0.002138 kPa
976 K | 0.002951 kPa and 0.00257 kPa
977 K | 0.002884 kPa and 0.002138 kPa
978 K | 0.002455 kPa
979 K | 0.002291 kPa and 0.002951 kPa
983 K | 0.002951 kPa and 0.002399 kPa
985 K | 0.003631 kPa and 0.003162 kPa and 0.003236 kPa
986 K | 0.003981 kPa and 0.003715 kPa
987 K | 0.00302 kPa
991 K | 0.004266 kPa
993 K | 0.004677 kPa and 0.00389 kPa
994 K | 0.004074 kPa and 0.003388 kPa and 0.004169 kPa
995 K | 0.005012 kPa and 0.003631 kPa
996 K | 0.005012 kPa
1004 K | 0.00631 kPa and 0.005623 kPa

[I][Yb][I] [ytterbium(II) iodide]
Conditions | vapor or sublimation pressure
968 K, Crystal | 1.9e-05 kPa
975 K, Crystal | 2.8e-05 kPa
976 K, Crystal | 2.8e-05 kPa
978 K, Crystal | 3.8e-05 kPa
982 K, Crystal | 3.8e-05 kPa
987 K, Crystal | 3.8e-05 kPa
989 K, Crystal | 3.8e-05 kPa and 4.8e-05 kPa and 5.6e-05 kPa
991 K, Crystal | 4.8e-05 kPa
996 K, Crystal | 5.6e-05 kPa and 6.6e-05 kPa
997 K, Crystal | 6.3e-05 kPa
998 K, Crystal | 5.6e-05 kPa
999 K, Crystal | 5.6e-05 kPa
1003 K, Crystal | 6.3e-05 kPa
1005 K, Crystal | 8.5e-05 kPa
1006 K, Crystal | 7.6e-05 kPa and 7.9e-05 kPa
1008 K, Crystal | 6.3e-05 kPa and 7.6e-05 kPa
1011 K, Crystal | 8.5e-05 kPa
1013 K, Crystal | 7.9e-05 kPa and 0.000115 kPa
1014 K, Crystal | 9.3e-05 kPa
1015 K, Crystal | 9.5e-05 kPa
1017 K, Crystal | 9.5e-05 kPa
1019 K, Crystal | 9.3e-05 kPa
1020 K, Crystal | 0.000115 kPa
1021 K, Crystal | 0.000141 kPa
1022 K, Crystal | 0.000126 kPa
1023 K, Crystal | 0.00011 kPa
1025 K, Crystal | 0.000132 kPa
1026 K, Crystal | 0.000132 kPa
1029 K, Crystal | 0.000126 kPa
1030 K, Crystal | 0.000158 kPa and 0.000151 kPa and 0.000182 kPa
1034 K, Crystal | 0.00017 kPa
1035 K, Crystal | 0.000158 kPa and 0.00017 kPa and 0.000182 kPa
1038 K, Crystal | 0.000219 kPa
1039 K, Crystal | 0.000174 kPa and 0.000204 kPa
1040 K, Crystal | 0.000209 kPa
1043 K, Crystal | 0.000229 kPa [middle of 4 runs]
1046 K, Crystal | 0.000282 kPa
1049 K, Crystal | 0.000234 kPa and 0.000282 kPa
1068 K, Liquid | 0.000468 kPa
1073 K, Liquid | 0.000501 kPa
1078 K, Liquid | 0.000631 kPa
1082 K, Liquid | 0.000631 kPa
1087 K, Liquid | 0.000759 kPa
1092 K, Liquid | 0.000813 kPa
1098 K, Liquid | 0.001 kPa
1101 K, Liquid | 0.001 kPa
1103 K, Liquid | 0.001202 kPa
1108 K, Liquid | 0.00138 kPa
1111 K, Liquid | 0.001259 kPa
1112 K, Liquid | 0.001445 kPa
1117 K, Liquid | 0.001698 kPa
1119 K, Liquid | 0.001585 kPa
1122 K, Liquid | 0.001862 kPa
1127 K, Liquid | 0.002138 kPa
1128 K, Liquid | 0.001995 kPa
1132 K, Liquid | 0.002239 kPa
1137 K, Liquid | 0.002754 kPa
1138 K, Liquid | 0.002512 kPa
1143 K, Liquid | 0.002951 kPa
1148 K, Liquid | 0.003388 kPa and 0.00309 kPa
1152 K, Liquid | 0.003548 kPa
1158 K, Liquid | 0.004365 kPa and 0.003981 kPa
1162 K, Liquid | 0.004786 kPa
1168 K, Liquid | 0.005754 kPa and 0.005129 kPa
1173 K, Liquid | 0.006026 kPa
1179 K, Liquid | 0.006918 kPa and 0.006761 kPa
1183 K, Liquid | 0.007586 kPa
1189 K, Liquid | 0.00871 kPa
1192 K, Liquid | 0.008913 kPa

[Br-].[Br-].[Br-].[Lu+3] [lutetium tribromide]
Crystal
Conditions | vapor or sublimation pressure
903 K | 6.3e-05 kPa
908 K | 7.9e-05 kPa
909 K | 9.3e-05 kPa
910 K | 6.3e-05 kPa and 9.3e-05 kPa
914 K | 9.3e-05 kPa
917 K | 9.3e-05 kPa
918 K | 0.000141 kPa and 0.000126 kPa
919 K | 0.000126 kPa
920 K | 0.00011 kPa
921 K | 9.3e-05 kPa and 0.00011 kPa
924 K | 0.000141 kPa
926 K | 0.000126 kPa and 0.000191 kPa
927 K | 0.000191 kPa
929 K | 0.000204 kPa
930 K | 0.000158 kPa and 0.000126 kPa
931 K | 0.000158 kPa
935 K | 0.000191 kPa
936 K | 0.000234 kPa
937 K | 0.000282 kPa
938 K | 0.000251 kPa and 0.000219 kPa and 0.000282 kPa
939 K | 0.000282 kPa
940 K | 0.000191 kPa
946 K | 0.000316 kPa
947 K | 0.00038 kPa
948 K | 0.00038 kPa [middle of 4 runs]
950 K | 0.000407 kPa and 0.000282 kPa
956 K | 0.000427 kPa and 0.000437 kPa and 0.000501 kPa
957 K | 0.000562 kPa
958 K | 0.00049 kPa and 0.000468 kPa
960 K | 0.000603 kPa and 0.000427 kPa
965 K | 0.000676 kPa
966 K | 0.000617 kPa and 0.000794 kPa and 0.000724 kPa
967 K | 0.000661 kPa and 0.000794 kPa
968 K | 0.000661 kPa
969 K | 0.000794 kPa and 0.000617 kPa
973 K | 0.000912 kPa
975 K | 0.000813 kPa
976 K | 0.001096 kPa and 0.001047 kPa
977 K | 0.001072 kPa
978 K | 0.000912 kPa and 0.000933 kPa
979 K | 0.001096 kPa and 0.000912 kPa
981 K | 0.001175 kPa
984 K | 0.001445 kPa
986 K | 0.001202 kPa and 0.001413 kPa and 0.001445 kPa
987 K | 0.001318 kPa
988 K | 0.001288 kPa
989 K | 0.001514 kPa and 0.00123 kPa and 0.001585 kPa
995 K | 0.00195 kPa and 0.001778 kPa
996 K | 0.001585 kPa and 0.00195 kPa
997 K | 0.00195 kPa and 0.001778 kPa
998 K | 0.001778 kPa and 0.001622 kPa
999 K | 0.002089 kPa
1004 K | 0.00257 kPa and 0.002399 kPa
1006 K | 0.002512 kPa and 0.002089 kPa and 0.00257 kPa
1007 K | 0.002188 kPa and 0.002399 kPa
1008 K | 0.002399 kPa
1009 K | 0.002818 kPa
1013 K | 0.003311 kPa and 0.00309 kPa
1016 K | 0.003162 kPa
1017 K | 0.002951 kPa and 0.003388 kPa
1018 K | 0.003236 kPa and 0.00302 kPa and 0.003548 kPa
1023 K | 0.004074 kPa
1026 K | 0.004074 kPa
1027 K | 0.003981 kPa and 0.003802 kPa and 0.005012 kPa
1028 K | 0.00389 kPa
1038 K | 0.007244 kPa
